Columns and labels:
Format in all cases: cell-based
Clostridioides difficile = test: Inhibition of sporulation of Clostridioides difficile (spore count); conditions: 100 μg/mL; added to medium grown to a saturated state; from day 2; FIG. 6
Protocol: To validate the influence of equol (100 μg/mL) on the sporulation of Clostridioides difficile, equol was added to a medium in which Clostridioides difficile had grown to a saturated state, and the number of spores formed was counted.

[1] = tested on: Clostridioides difficile (NAP1/027 strain); test: Growth inhibition on Clostridioides difficile NAP1/027 strain (OD600); conditions: for inhibition of the growth of Clostridioides difficile versus control: FIG. 2
Protocol: Clostridioides difficile (NAP1/027 strain) was added to a medium containing equol in a concentration of 100 μg/mL, 75 μg/mL, 50 μg/mL, or 25 μg/mL (0 hour), and subsequently cultured to check the influence on the growth for 24 hours after the start of culture. The culture performed was totally under anaerobic conditions at 35° C.
Because equol dissolved in DMSO was used, a medium with addition only of DMSO was additionally subjected to measurement as a control.
The growth of the bacterium was examined by measuring the absorbance of each medium at 600 nm (OD600).
Equol is a final product generated from daidzin through daidzein and dihydrodaidzein. Inhibition of the growth of Clostridioides difficile by equol (100 μg/mL, 50 μg/mL), daidzein (50 μg/mL), and dihydrodaidzein (100 μg/mL, 50 μg/mL) was measured in the same manner as in Example 1.

[2] = tested on: Clostridioides difficile (NAP1/027 strain); test: Influence on form of Clostridioides difficile (Gram staining); conditions: 100 μg/mL; after 8-day culture; FIG. 5
Protocol: The influence of equol on the form of Clostridioides difficile (NAP1/027 strain) was validated through staining of Clostridioides difficile with Gram staining under the action of equol (100 μg/mL) in the same manner as in Example 1.

[3] = tested on: Clostridioides perfringens (C. perfringens (Clostridium perfringens)); conditions: 100 μg/mL; FIG. 4
[4] = tested on: Escherichia coli (E. coli); test: Growth inhibition on other bacterial species: Escherichia coli; conditions: 100 μg/mL; FIG. 4
[5] = tested on: Bacteroides fragilis (B. fragilis); test: Growth inhibition on other bacterial species: Bacteroides fragilis; conditions: 100 μg/mL

| SMILES | number of spores formed versus control (Clostridioides difficile) | inhibition of the growth of Clostridioides difficile versus control ([1]; 50 μg/mL) | inhibition of the growth of Clostridioides difficile versus control ([1]; 100 μg/mL) | concentration dependence of growth inhibition ([1]; equol 25 to 100 μg/mL, FIG. 1) | growth of Clostridioides difficile (OD600) versus control ([1]; equol 100, 75, 50 or 25 μg/mL, 24 hours, anaerobic, 35° C., DMSO control, FIG. 1) | form of cells (Gram staining) versus control [2] | influence on growth of Clostridioides perfringens [3] | influence on growth of Escherichia coli [4] | proliferation of Bacteroides fragilis ([5]; 52 hours of the test, FIG. 4) | viability of Bacteroides fragilis after transfer into a medium without equol ([5]; transferred at the end of 52 hours of the test) |
| --- | --- | --- | --- | --- | --- | --- | --- | --- | --- | --- |
| Oc1ccc([C@H]2COc3cc(O)ccc3C2)cc1 (stereo in doubt) [equol, 4′,7-isoflavandiol] | few spores | inhibited the growth of Clostridioides difficile to the same degree | an even higher degree of inhibition than them | the inhibition depended on the concentration of equol | slower than that in the control | forms longer and thinner than those of cells in the control | An influence was observed | no influence was found | completely no proliferation | only the growth was inhibited, without killing the bacterium |
| O=c1c(-c2ccc(O)cc2)coc2cc(O)ccc12 [daidzein, reference compound] | – | no clear difference from the control | – | – | – | – | – | – | – | – |
| O=C1c2ccc(O)cc2OCC1c1ccc(O)cc1 (stereo not shown) [dihydrodaidzein, reference compound] | – | no clear difference from the control | inhibited the growth of Clostridioides difficile to the same degree | – | – | – | – | – | – | – |

Reference: US20210379009A1, “ANTIBACTERIAL AGENT AGAINST ENTEROBACTERIUM WHICH CONTAINS EQUOL AS ACTIVE INGREDIENT” (priority 2018, published 2021)
